# Assay results taken from patent publication US10172814B2, “Substituted pyridyl-cycloalkyl-carboxylic acids, compositions containing them and medical uses thereof” (BAYER PHARMA AKTIENGESELLSCHAFT, priority 2014, dated 2019).
# Target: human PTGES (Homo sapiens (Human), UniProt O14684)
# Assay: Human PTGES biochemical enzyme inhibition assay (conversion of PGH2 to PGE2, TR-FRET)
# Details: Enzymatic conversion of PGH2 to PGE2; read-out: Human PTGES IC50
# In short: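 FLAG-tagged human PTGES from Hi-5 insect cells preincubated 15–20 min with compound in pH 7.2 phosphate buffer with 2.5 mM reduced glutathione; reaction started with 8 nM PGH2 final, stopped with SnCl2/KF.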
# Sequence of human PTGES (O14684 whole entry): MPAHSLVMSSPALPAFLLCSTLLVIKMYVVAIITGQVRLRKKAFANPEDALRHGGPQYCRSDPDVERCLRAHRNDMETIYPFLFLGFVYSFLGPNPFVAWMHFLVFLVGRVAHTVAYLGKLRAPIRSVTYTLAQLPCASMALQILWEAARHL
row,Compound,IC50 [nM]
1,"Cc1ncc(-c2ccc(C(C(=O)Nc3cccc(C(C)CC(=O)O)c3C)C3CCCC3)cc2F)cc1Cl (single isomer, unassigned; stereoisomer 2) [Example 122, 3-[3-({[4-(5-Chloro-6-methylpyridin-3-yl)-3-fluorophenyl](cyclopentyl)acetyl}amino)-2-methylphenyl]butanoic acid, Stereoisomer 2]",22.8
2,"Cc1c(NC(=O)C(c2ccc(-c3cncc(Cl)c3)c(F)c2)C2CCCC2)cccc1C(C)CC(=O)O (single isomer, unassigned; stereoisomer 2) [Example 127, 3-[3-({[4-(5-Chloropyridin-3-yl)-3-fluorophenyl](cyclopentyl)acetyl}amino)-2-methylphenyl]butanoic acid, Stereoisomer 2]",31.5
3,"Cc1c(NC(=O)C(c2ccc(-c3cncc(Cl)c3)cc2)C2CCC2)cccc1C(C)CC(=O)O (single isomer, unassigned; stereoisomer 2) [Example 137]",2900
4,"Cc1c(NC(=O)C(c2ccc(-c3cncc(C(F)(F)F)c3)c(F)c2)C2CCC2)cccc1C(C)CC(=O)O (single isomer, unassigned; stereoisomer 2) [Example 148, 3-{3-[(Cyclobutyl{3-fluoro-4-[5-(trifluoromethyl)pyridin-3-yl]phenyl}acetyl)amino]-2-methylphenyl}butanoic acid, Stereoisomer 2]",24.2
5,"Cc1c(NC(=O)C(c2ccc(-c3cncc(Cl)c3)c(F)c2)C2CCC2)cccc1C(C)CC(=O)O (single isomer, unassigned; stereoisomer 2) [Example 151, 3-[3-({[4-(5-Chloropyridin-3-yl)-3-fluorophenyl](cyclobutyl)acetyl}amino)-2-methylphenyl]butanoic acid, Stereoisomer 2]",46.5
6,"Cc1c(CC(C)C(=O)O)cccc1NC(=O)C(c1ccc(-c2cncc(C(F)(F)F)c2)cc1)C1CCCC1 (single isomer, unassigned; stereoisomer 3) [Example 71, 3-{3-[(Cyclopentyl{4-[5-(trifluoromethyl)pyridin-3-yl]phenyl}acetyl)amino]-2-methylphenyl}-2-methylpropanoic acid, Stereoisomer 3]",15900
7,"Cc1c(NC(=O)C(c2ccc(-c3cncc(C(F)(F)F)c3)c(F)c2)C2CCCC2)cccc1C(C)CC(=O)O (single isomer, unassigned; stereoisomer 3) [Example 118, 3-{3-[(Cyclopentyl{3-fluoro-4-[5-(trifluoromethyl)pyridin-3-yl]phenyl}acetyl)amino]-2-methylphenyl}butanoic acid, Stereoisomer 3]",383
8,"Cc1ncc(-c2ccc(C(C(=O)Nc3cccc(C(C)CC(=O)O)c3C)C3CCCC3)cc2F)cc1Cl (single isomer, unassigned; stereoisomer 3) [Example 123, 3-[3-({[4-(5-Chloro-6-methylpyridin-3-yl)-3-fluorophenyl](cyclopentyl)acetyl}amino)-2-methylphenyl]butanoic acid, Stereoisomer 3]",646
9,"Cc1c(NC(=O)C(c2ccc(-c3cncc(Cl)c3)c(F)c2)C2CCCC2)cccc1C(C)CC(=O)O (single isomer, unassigned; stereoisomer 3) [Example 128, 3-[3-({[4-(5-Chloropyridin-3-yl)-3-fluorophenyl](cyclopentyl)acetyl}amino)-2-methylphenyl]butanoic acid, Stereoisomer 3]",1730
10,"Cc1c(NC(=O)C(c2ccc(-c3cncc(Cl)c3)cc2)C2CCC2)cccc1C(C)CC(=O)O (single isomer, unassigned; stereoisomer 3) [Example 138]",2040
11,"Cc1c(NC(=O)C(c2ccc(-c3cncc(Cl)c3)c(F)c2)C2CCC2)cccc1C(C)CC(=O)O (single isomer, unassigned; stereoisomer 3) [Example 152, 3-[3-({[4-(5-Chloropyridin-3-yl)-3-fluorophenyl](cyclobutyl)acetyl}amino)-2-methylphenyl]butanoic acid, Stereoisomer 3]",914
12,"Cc1c(CC(C)C(=O)O)cccc1NC(=O)C(c1ccc(-c2cncc(C(F)(F)F)c2)cc1)C1CCCC1 (single isomer, unassigned; stereoisomer 4) [Example 72, 3-{3-[(Cyclopentyl{4-[5-(trifluoromethyl)pyridin-3-yl]phenyl}acetyl)amino]-2-methylphenyl}-2-methylpropanoic acid, Stereoisomer 4]",71
13,"CCC(CC(=O)O)c1cccc(NC(=O)C(c2ccc(-c3cncc(F)c3)cc2)C2CCCC2)c1C (single isomer, unassigned; stereoisomer 4) [Example 106, 3-[3-({[4-(5-Fluoropyridin-3-yl)phenyl](cyclopentyl)acetyl}amino)-2-methylphenyl]pentanoic acid, Stereoisomer 4]",156
14,"Cc1c(NC(=O)C(c2ccc(-c3cncc(C(F)(F)F)c3)c(F)c2)C2CCCC2)cccc1C(C)CC(=O)O (single isomer, unassigned; stereoisomer 4) [Example 119, 3-{3-[(Cyclopentyl{3-fluoro-4-[5-(trifluoromethyl)pyridin-3-yl]phenyl}acetyl)amino]-2-methylphenyl}butanoic acid, Stereoisomer 4]",1060
15,"Cc1ncc(-c2ccc(C(C(=O)Nc3cccc(C(C)CC(=O)O)c3C)C3CCCC3)cc2F)cc1Cl (single isomer, unassigned; stereoisomer 4) [Example 124, 3-[3-({[4-(5-Chloro-6-methylpyridin-3-yl)-3-fluorophenyl](cyclopentyl)acetyl}amino)-2-methylphenyl]butanoic acid, Stereoisomer 4]",5.06
16,"Cc1c(NC(=O)C(c2ccc(-c3cncc(Cl)c3)c(F)c2)C2CCCC2)cccc1C(C)CC(=O)O (single isomer, unassigned; stereoisomer 4) [Example 129, 3-[3-({[4-(5-Chloropyridin-3-yl)-3-fluorophenyl](cyclopentyl)acetyl}amino)-2-methylphenyl]butanoic acid, Stereoisomer 4]",5.6
17,"Cc1c(NC(=O)C(c2ccc(-c3cncc(Cl)c3)cc2)C2CCC2)cccc1C(C)CC(=O)O (single isomer, unassigned; stereoisomer 4) [Example 139]",107
18,"Cc1c(NC(=O)C(c2ccc(-c3cncc(Cl)c3)c(F)c2)C2CCC2)cccc1C(C)CC(=O)O (single isomer, unassigned; stereoisomer 4) [Example 153, 3-[3-({[4-(5-Chloropyridin-3-yl)-3-fluorophenyl](cyclobutyl)acetyl}amino)-2-methylphenyl]butanoic acid, Stereoisomer 4]",11.7
19,"Cc1cc(-c2ccc(C(C(=O)Nc3cccc(CC(C)C(=O)O)c3C)C3CCCC3)cc2)cnc1C (centres unmarked) [Example 78, (2R/2S)-3-[3-({(2R/2S)-2-Cyclopentyl-2-[4-(5,6-dimethylpyridin-3-yl)phenyl]acetyl}amino)-2-methylphenyl]-2-methylpropanoic acid]",118
20,"Cc1ccc(-c2ccc(C(C(=O)Nc3cccc(CC(C)C(=O)O)c3C)C3CCCC3)cc2)cn1 (centres unmarked) [Example 79, (2R/2S)-3-[3-({(2R/2S)-2-Cyclopentyl-2-[4-(6-methylpyridin-3-yl)phenyl]acetyl}amino)-2-methylphenyl]-2-methylpropanoic acid]",433
